Test results published in article PMC5986654, “Combined HAT/EZH2 modulation leads to cancer-selective cell death” (Oncotarget, 2018).

Columns and labels:
[1] = tested on: leukemia NB4 cells; assay: Cell death induction in NB4 cells (FACS, pre-G1); type: cell-based, human; settings: for effect on cell death, single inhibitor: C646 5 µM, GSK126 10 µM, used separately; for % Cell death NB4 cells: 3 μM, 30 h
[2] = target: pCAF (Homo sapiens, UniProt Q92831); assay: HAT in vitro assay, 10-dose IC50, pCAF; type: biochemical; settings: substrate Histone H3, 3 μM Acetyl-CoA; read-out: Compound IC50 pCAF
Procedure: (§1) For HAT in vitro assay, MC2884 activity was also tested in vitro and IC50 was calculated as indicated in the scheme. […] Reactions were carried out at 3 μM Acetyl-CoA. Empty cells indicate no inhibition or compound activity that could not be fit to an IC50 curve.

[3] = target: GCN5 (Homo sapiens, UniProt Q92830); assay: HAT in vitro assay, 10-dose IC50, GCN5; type: biochemical; settings: substrate Histone H3, 3 μM Acetyl-CoA; read-out: Compound IC50 GCN5
Procedure: as §1

[4] = target: CBP (Homo sapiens, UniProt Q92793); assay: HAT in vitro assay, 10-dose IC50, CBP; type: biochemical; settings: substrate Histone H3, 3 μM Acetyl-CoA; read-out: Compound IC50 CBP
Procedure: as §1

[5] = target: KAT5 (Homo sapiens, UniProt Q92993); assay: HAT in vitro assay, 10-dose IC50, KAT5; type: biochemical; settings: substrate Histone H2A, 3 μM Acetyl-CoA; read-out: Compound IC50 KAT5
Procedure: as §1

[6] = tested on: neuroblastoma SHSY5Y cells; assay: Cell death induction in SHSY5Y cells; type: cell-based; settings: 3 μM, 48 h
Procedure: When tested in neuroblastoma SHSY5Y cells at tetrahydro-4H -pyran-4-one MC2912 failed in inducing
3 μM for 48 h, MC2884 and its analogues furnished cell death in SHSY5Y cells, whereas its thio-analogue
(Supplementary SAR Table 1). In general, the SHSY5Y similarly to what observed in NB4 cells.
than NB4 cells. Anyway, also in this cell line the death in both cell lines such as MC2910, 2912, 2909,
(MC2909), and bis 3,5-dibromophenyl (MC2910) were acetylation and EZH2 deregulation (SAR Figure 2). In […]
3-phenyl-1-propan-1-one chain at N1 (MC3187), which 3).

KAT5, sequence (Q92993 whole entry): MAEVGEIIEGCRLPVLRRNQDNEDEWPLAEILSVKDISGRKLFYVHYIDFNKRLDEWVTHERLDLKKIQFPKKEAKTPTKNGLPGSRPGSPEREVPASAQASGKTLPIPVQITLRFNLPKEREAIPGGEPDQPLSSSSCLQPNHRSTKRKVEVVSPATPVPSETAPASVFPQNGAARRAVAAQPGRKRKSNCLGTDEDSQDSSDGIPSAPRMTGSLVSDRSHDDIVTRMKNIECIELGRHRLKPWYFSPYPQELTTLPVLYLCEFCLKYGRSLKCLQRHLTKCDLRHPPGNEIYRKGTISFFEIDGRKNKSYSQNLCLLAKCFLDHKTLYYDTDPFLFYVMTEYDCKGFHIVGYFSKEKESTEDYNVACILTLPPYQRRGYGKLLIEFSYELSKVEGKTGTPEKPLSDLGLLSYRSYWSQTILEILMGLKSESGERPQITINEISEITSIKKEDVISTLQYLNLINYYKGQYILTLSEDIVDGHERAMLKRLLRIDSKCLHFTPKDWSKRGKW
CBP, sequence (Q92793 whole entry): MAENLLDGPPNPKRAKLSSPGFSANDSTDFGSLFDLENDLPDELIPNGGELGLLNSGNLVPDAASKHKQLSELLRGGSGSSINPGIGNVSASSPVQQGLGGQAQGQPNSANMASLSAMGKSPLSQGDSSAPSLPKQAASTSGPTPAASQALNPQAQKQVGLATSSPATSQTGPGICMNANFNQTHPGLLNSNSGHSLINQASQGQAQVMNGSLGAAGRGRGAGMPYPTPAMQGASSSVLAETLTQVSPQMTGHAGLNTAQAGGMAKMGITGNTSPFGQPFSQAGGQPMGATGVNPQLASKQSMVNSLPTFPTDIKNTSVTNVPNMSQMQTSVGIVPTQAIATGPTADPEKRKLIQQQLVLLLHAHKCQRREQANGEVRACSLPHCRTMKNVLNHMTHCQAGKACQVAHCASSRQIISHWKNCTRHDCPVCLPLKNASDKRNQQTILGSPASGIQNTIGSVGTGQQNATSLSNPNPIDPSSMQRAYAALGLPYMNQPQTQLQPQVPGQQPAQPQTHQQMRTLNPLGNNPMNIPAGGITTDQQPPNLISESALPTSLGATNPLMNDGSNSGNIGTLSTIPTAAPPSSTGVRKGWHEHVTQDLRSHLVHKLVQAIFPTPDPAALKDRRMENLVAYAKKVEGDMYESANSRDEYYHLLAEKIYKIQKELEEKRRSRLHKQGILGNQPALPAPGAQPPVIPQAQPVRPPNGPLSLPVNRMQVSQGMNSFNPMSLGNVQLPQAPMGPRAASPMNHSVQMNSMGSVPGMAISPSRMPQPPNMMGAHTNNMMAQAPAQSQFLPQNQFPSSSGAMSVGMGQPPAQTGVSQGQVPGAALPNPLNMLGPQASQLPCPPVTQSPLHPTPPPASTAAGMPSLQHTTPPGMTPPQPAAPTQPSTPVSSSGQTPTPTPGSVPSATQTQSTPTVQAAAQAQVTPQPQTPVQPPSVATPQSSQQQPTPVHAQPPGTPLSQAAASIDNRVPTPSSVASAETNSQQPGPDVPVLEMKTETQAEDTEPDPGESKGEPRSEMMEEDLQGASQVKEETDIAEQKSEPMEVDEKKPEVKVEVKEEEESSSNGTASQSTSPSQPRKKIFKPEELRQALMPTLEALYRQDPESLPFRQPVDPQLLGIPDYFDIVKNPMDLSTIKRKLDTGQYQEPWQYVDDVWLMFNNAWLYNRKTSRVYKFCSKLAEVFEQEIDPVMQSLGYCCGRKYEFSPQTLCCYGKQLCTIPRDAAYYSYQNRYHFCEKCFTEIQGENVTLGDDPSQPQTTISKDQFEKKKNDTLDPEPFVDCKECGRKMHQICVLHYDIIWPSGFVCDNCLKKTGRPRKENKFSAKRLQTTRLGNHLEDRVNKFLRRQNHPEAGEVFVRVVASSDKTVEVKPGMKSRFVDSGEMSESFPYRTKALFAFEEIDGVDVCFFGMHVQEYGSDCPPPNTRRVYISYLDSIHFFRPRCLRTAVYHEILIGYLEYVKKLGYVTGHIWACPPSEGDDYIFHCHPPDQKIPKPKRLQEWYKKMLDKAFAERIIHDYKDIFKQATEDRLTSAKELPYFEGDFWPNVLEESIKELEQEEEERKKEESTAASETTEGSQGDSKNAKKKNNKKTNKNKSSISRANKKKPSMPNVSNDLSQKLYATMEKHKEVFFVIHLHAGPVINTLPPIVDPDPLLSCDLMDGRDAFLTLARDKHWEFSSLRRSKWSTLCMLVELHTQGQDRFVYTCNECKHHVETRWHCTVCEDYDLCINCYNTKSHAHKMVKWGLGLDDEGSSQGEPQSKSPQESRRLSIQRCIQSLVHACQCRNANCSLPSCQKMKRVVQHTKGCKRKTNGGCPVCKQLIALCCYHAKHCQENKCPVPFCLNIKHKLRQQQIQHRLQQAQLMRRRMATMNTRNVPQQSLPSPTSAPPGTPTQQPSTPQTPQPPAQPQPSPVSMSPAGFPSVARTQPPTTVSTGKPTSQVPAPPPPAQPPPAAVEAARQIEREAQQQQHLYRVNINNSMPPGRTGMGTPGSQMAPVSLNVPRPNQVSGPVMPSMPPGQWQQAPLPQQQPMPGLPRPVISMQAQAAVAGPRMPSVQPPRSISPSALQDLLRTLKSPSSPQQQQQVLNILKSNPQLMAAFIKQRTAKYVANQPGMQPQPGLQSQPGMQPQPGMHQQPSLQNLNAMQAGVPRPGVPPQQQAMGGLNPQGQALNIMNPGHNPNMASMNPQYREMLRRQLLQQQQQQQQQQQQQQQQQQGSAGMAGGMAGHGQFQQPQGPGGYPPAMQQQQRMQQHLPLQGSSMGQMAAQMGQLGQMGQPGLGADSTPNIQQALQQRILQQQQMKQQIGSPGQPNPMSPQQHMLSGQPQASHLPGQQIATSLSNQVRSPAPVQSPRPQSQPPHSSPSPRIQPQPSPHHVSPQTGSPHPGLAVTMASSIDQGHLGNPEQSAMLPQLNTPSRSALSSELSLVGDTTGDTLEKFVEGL
pCAF, sequence (Q92831 whole entry): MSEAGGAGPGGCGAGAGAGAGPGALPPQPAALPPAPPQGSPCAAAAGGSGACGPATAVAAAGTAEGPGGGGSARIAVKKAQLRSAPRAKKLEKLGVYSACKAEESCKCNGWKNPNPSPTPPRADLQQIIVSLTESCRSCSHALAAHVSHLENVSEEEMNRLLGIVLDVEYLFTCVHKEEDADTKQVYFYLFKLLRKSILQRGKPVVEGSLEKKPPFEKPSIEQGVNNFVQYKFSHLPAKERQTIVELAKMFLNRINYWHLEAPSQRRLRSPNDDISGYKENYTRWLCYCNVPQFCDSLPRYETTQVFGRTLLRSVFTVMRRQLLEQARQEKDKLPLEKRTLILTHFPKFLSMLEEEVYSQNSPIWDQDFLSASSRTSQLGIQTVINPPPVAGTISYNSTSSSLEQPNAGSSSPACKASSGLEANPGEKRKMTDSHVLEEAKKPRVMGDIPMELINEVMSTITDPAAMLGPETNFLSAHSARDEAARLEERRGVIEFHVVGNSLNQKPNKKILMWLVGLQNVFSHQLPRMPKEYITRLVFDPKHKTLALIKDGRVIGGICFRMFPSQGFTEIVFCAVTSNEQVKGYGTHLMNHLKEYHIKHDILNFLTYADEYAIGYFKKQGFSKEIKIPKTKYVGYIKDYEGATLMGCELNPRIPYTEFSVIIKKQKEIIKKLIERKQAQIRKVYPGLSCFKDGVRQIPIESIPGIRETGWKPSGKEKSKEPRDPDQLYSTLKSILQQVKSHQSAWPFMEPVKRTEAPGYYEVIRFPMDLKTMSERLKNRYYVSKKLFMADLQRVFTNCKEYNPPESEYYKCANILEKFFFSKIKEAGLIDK
GCN5, sequence (Q92830 whole entry): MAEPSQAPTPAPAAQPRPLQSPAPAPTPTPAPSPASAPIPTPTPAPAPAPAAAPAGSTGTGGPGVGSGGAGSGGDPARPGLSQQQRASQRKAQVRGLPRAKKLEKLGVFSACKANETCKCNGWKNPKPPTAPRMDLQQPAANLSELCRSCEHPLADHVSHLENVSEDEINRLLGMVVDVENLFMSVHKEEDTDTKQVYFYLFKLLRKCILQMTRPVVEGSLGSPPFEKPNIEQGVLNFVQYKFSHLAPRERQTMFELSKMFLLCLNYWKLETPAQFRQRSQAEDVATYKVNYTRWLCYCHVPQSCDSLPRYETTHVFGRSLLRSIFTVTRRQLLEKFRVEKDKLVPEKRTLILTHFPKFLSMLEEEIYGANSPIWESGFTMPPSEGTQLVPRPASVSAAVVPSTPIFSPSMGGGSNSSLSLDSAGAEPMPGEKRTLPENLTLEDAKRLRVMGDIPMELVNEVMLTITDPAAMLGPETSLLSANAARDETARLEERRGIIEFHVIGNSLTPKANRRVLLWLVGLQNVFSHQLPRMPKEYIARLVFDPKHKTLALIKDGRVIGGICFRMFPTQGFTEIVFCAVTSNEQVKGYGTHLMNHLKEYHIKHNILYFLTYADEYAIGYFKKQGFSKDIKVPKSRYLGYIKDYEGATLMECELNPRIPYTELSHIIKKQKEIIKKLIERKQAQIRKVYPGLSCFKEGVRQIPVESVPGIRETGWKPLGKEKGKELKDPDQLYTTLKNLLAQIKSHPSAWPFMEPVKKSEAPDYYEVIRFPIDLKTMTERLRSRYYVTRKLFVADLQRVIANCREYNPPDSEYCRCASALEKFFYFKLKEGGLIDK

CN(C)CC[C@H](CSc1ccccc1)Nc1ccc(S(=O)(=O)NC(=O)c2ccc(N3CCN(Cc4ccccc4-c4ccc(Cl)cc4)CC3)cc2)cc1[N+](=O)[O-] [ABT-737, reference compound]
cell death, ABT-737 with addition of MC2884 ([1]; NB4 cells, ABT-737 1 µM plus MC2884 at concentrations that alone induced little apoptosis): up to 60%

CCCCCCCCCCCCCCCc1cccc(O)c1C(=O)O [Anacardic Acid]
IC50 [2]: 38.8 µM
IC50 [3]: 38.6 µM

CC1=NN(c2ccc(C(=O)O)cc2)C(=O)/C1=C\c1ccc(-c2cc(C)c(C)cc2[N+](=O)[O-])o1 [C646, reference compound]
IC50 [4]: 0.0787 µM
effect on cell death, single inhibitor ([1]; NB4 cells): no effects
IC50 [5]: 20.4 µM

CC[C@H](C)n1cc(C)c2c(C(=O)NCc3c(C)cc(C)[nH]c3=O)cc(-c3ccc(N4CCNCC4)nc3)cc21 [GSK126, reference compound]
effect on cell death, single inhibitor ([1]; NB4 cells): no effects

O=C(/C=C/c1ccc(Br)cc1)/C=C/c1ccc(Br)cc1 [MC2886]
% Cell death SHSY5Y cells [6]: 1,2%
% Cell death NB4 cells [1]: 0,56%

O=C1C(=Cc2ccccc2Br)CN(Cc2ccccc2)CC1=Cc1ccccc1Br [MC2908]
% Cell death SHSY5Y cells [6]: 9.2%
% Cell death NB4 cells [1]: 30.3%

O=C1C(=Cc2ccc(Br)cc2)CN(Cc2ccccc2)CC1=Cc1ccc(Br)cc1 [MC2909]
% Cell death SHSY5Y cells [6]: 4.7%
% Cell death NB4 cells [1]: 8.8%

O=C1/C(=C/c2cccc(Br)c2)CCC/C1=C\c1cccc(Br)c1 [MC2911]
% Cell death SHSY5Y cells [6]: 0,8%
% Cell death NB4 cells [1]: 0,76%

O=C1C(=Cc2cccc(Br)c2)CSCC1=Cc1cccc(Br)c1 [MC2913]
% Cell death SHSY5Y cells [6]: 23.9%
% Cell death NB4 cells [1]: 52.7%

CN1CC(=Cc2cccc(Br)c2)C(=O)C(=Cc2cccc(Br)c2)C1 [MC2914]
% Cell death SHSY5Y cells [6]: 9.0%
% Cell death NB4 cells [1]: 36%

O=C1C(=Cc2cccc(Br)c2)CN(C(=O)c2ccccc2)CC1=Cc1cccc(Br)c1 [MC3146]
% Cell death SHSY5Y cells [6]: 5.6%
% Cell death NB4 cells [1]: 13.2%

O=C1C(=Cc2cccc(Br)c2)CN(C(=O)CCc2ccccc2)CC1=Cc1cccc(Br)c1 [MC3187]
% Cell death SHSY5Y cells [6]: 19.9%
% Cell death NB4 cells [1]: 28.9%

O=C1C(=Cc2cccc(Br)c2)CN(CC(=O)c2ccccc2)CC1=Cc1cccc(Br)c1 [MC3207]
% Cell death SHSY5Y cells [6]: 7.0%
% Cell death NB4 cells [1]: 38%

O=C1C(=Cc2cccc(Br)c2)CN(CCc2ccccc2)CC1=Cc1cccc(Br)c1 [MC3269]
% Cell death SHSY5Y cells [6]: 19.2%
% Cell death NB4 cells [1]: 62.5%

O=C1/C(=C/c2ccc(O)cc2Br)CN(Cc2ccccc2)C/C1=C\c1ccc(O)cc1Br [MC3395]
% Cell death SHSY5Y cells [6]: 1,0%
% Cell death NB4 cells [1]: 0,53%
